# Results reported in patent publication US8802597B2, “Herbicidal pyrimidines” (E I du Pont de Nemours and Company, priority 2003, dated 2014).
# Legend:
# Assay in all cases: Test J mixtures of compound 58 with azimsulfuron, flooded paddy
# Type in all cases: in vivo
# Settings in all cases: 21 days, scale 0-100
# [1] = tested on: early watergrass (ECHOR; Echinochloa oryzoides)
# Source text: (§1) This test evaluated the effect of mixtures of compound 58 with azimsulfuron on several plant species. Three plastic pots (ca. 16-cm diameter) per rate were partially filled with sterilized Tama silt loam soil comprising a 35:50:15 ratio of sand, silt and clay and 2.6% organic matter. Separate plantings for each of the three pots were as follows. Seeds from the U.S. of ducksalad (HETLI; Heteranthera limosa), smallflower umbrella sedge (CYPDI; Cyperus difformis) and purple redstem (AMMCO; Ammannia coccinea), were planted into one 16-cm pot for each rate. Seeds from the U.S. of bearded sprangletop (LEFUF; Leptochloa fusca ssp. fascicularis), one stand of 9 or 10 water-seeded rice seedlings (ORYSW; Oryza sativa cv. ‘Japonica-M202’), and one stand of 6 transplanted rice seedlings (ORYSP; Oryza sativa cv. ‘Japonica-M202’) were planted into one 16-cm pot for each rate. Seeds from the U.S. of barnyardgrass (ECHCG; Echinochloa crus-galli), late watergrass (ECOR2; Echinochloa oryzicola), early watergrass (ECHOR; Echinochloa oryzoides) and junglerice (ECHCO; Echinochloa colona) were planted into one 16-cm pot for each rate. Plantings were sequential so that crop and weed species were at the 2.0 to 2.5-leaf stage at time of treatment.
# (§2) Potted plants were grown in a greenhouse with day/night temperature settings of 29.5/26.7° C., and supplemental balanced lighting was provided to maintain a 16-hour photoperiod. Test pots were maintained in the greenhouse until test completion.
# (§3) At time of treatment, test pots were flooded to 3 cm above the soil surface and then treated by application directly to the paddy water of test compounds formulated in a non-phytotoxic solvent mixture which included a surfactant. The pots were maintained at the 3-cm water depth for the duration of the test. Treatments consisted of compound 58 and azimsulfuron alone and in combination. Effects of treatments on rice and weeds were visually evaluated by comparison to untreated controls after 21 days. Plant response ratings were calculated as the means of the three replicates and are summarized in Table J. The ratings are based on a scale of 0 to 100 where 0 is no effect and 100 is complete control. A dash (-) response means no test result. Colby's Equation was used to determine the herbicidal effects expected from the mixtures.
# [2] = tested on: purple redstem (AMMCO; Ammannia coccinea)
# Source text: as §1, §2, §3
# [3] = tested on: bearded sprangletop (LEFUF; Leptochloa fusca ssp. fascicularis)
# Source text: as §1, §2, §3
# [4] = tested on: barnyardgrass (ECHCG; Echinochloa crus-galli)
# Source text: as §1, §2, §3
# [5] = tested on: late watergrass (ECOR2; Echinochloa oryzicola)
# Source text: as §1, §2, §3
# [6] = tested on: water-seeded rice seedlings (ORYSW; Oryza sativa cv. ‘Japonica-M202’)
# Source text: as §1, §2, §3
# [7] = tested on: smallflower umbrella sedge (CYPDI; Cyperus difformis)
# Source text: as §1, §2, §3
# [8] = tested on: junglerice (ECHCO; Echinochloa colona)
# Source text: as §1, §2, §3
# [9] = tested on: ducksalad (HETLI; Heteranthera limosa)
# Source text: as §1, §2, §3
# [10] = tested on: transplanted rice seedlings (ORYSP; Oryza sativa cv. ‘Japonica-M202’)
# Source text: as §1, §2, §3
compound,measurement,setting,value
COc1cc(OC)nc(NC(=O)NS(=O)(=O)c2c(-c3nnn(C)n3)cnn2C)n1 [Azimsulfuron],ECHOR Obsd.,[1]; Azimsulfuron 2 g a.i./ha alone,0
same,ECHOR Obsd.,[1]; Azimsulfuron 4 g a.i./ha alone,0
same,ECHOR Obsd.,[1]; Azimsulfuron 8 g a.i./ha alone,40
same,AMMCO Obsd.,[2]; Azimsulfuron 2 g a.i./ha alone,0
same,AMMCO Obsd.,[2]; Azimsulfuron 4 g a.i./ha alone,0
same,AMMCO Obsd.,[2]; Azimsulfuron 8 g a.i./ha alone,95
same,LEFUF Obsd.,[3]; Azimsulfuron 2 g a.i./ha alone,0
same,LEFUF Obsd.,[3]; Azimsulfuron 4 g a.i./ha alone,0
same,LEFUF Obsd.,[3]; Azimsulfuron 8 g a.i./ha alone,0
same,ECHCG Obsd.,[4]; Azimsulfuron 2 g a.i./ha alone,0
same,ECHCG Obsd.,[4]; Azimsulfuron 4 g a.i./ha alone,0
same,ECHCG Obsd.,[4]; Azimsulfuron 8 g a.i./ha alone,30
same,ECOR2 Obsd.,[5]; Azimsulfuron 2 g a.i./ha alone,0
same,ECOR2 Obsd.,[5]; Azimsulfuron 4 g a.i./ha alone,0
same,ECOR2 Obsd.,[5]; Azimsulfuron 8 g a.i./ha alone,50
same,ORYSW Obsd.,[6]; Azimsulfuron 2 g a.i./ha alone,0
same,ORYSW Obsd.,[6]; Azimsulfuron 4 g a.i./ha alone,0
same,ORYSW Obsd.,[6]; Azimsulfuron 8 g a.i./ha alone,10
same,CYPDI Obsd.,[7]; Azimsulfuron 2 g a.i./ha alone,95
same,CYPDI Obsd.,[7]; Azimsulfuron 4 g a.i./ha alone,100
same,CYPDI Obsd.,[7]; Azimsulfuron 8 g a.i./ha alone,100
same,ECHCO Obsd.,[8]; Azimsulfuron 2 g a.i./ha alone,0
same,ECHCO Obsd.,[8]; Azimsulfuron 4 g a.i./ha alone,0
same,ECHCO Obsd.,[8]; Azimsulfuron 8 g a.i./ha alone,40
same,HETLI Obsd.,[9]; Azimsulfuron 2 g a.i./ha alone,30
same,HETLI Obsd.,[9]; Azimsulfuron 4 g a.i./ha alone,30
same,HETLI Obsd.,[9]; Azimsulfuron 8 g a.i./ha alone,100
same,ORYSP Obsd.,[10]; Azimsulfuron 2 g a.i./ha alone,0
same,ORYSP Obsd.,[10]; Azimsulfuron 4 g a.i./ha alone,0
same,ORYSP Obsd.,[10]; Azimsulfuron 8 g a.i./ha alone,0
